Laboratory results: patent US5049559A, “Thieno-triazolo-diazepine derivatives useful as anti-ischemic agents” (priority 1989, dated 1991)

Tests used:
[1] = Global ischemia on gerbils; assay type: in vivo; details: Meriones unguiculatus, 168 h, carotides clamped 10 minutes, hippocampes one week later, 3H-PK 11195, percentage of protection compared to control
Procedure: 3) Global ischemia on gerbils For this test, males gerbils were anaesthetized with brietal at the doses of 35 mg/kg IP; thereafter, both carotides were clamped for 10 minutes, then the clamping was released. Treated animals received each 10 mg/kg of the compounds of one of the examples. One week later, the animals were killed and both hippocampes were taken, weighed and frozen at -80° C. After crushing with 1 ml of TRIS-HCl pH 7.4 for 30 seconds, aliquots of each 50 μl of this preparation were incubed in each 1 ml of TRIS-HCl buffer containing ^3 H-PK 11195 at 2 nM (90 Ci/mmole, NENE, Germany) for 1 hour at 25° C. For each preparation, 3 determinations were made. The density of omega 3 sites (marked by the specific ^3 H-PK 11195 marker) are expressed in f-moles of PK 11195/mg of fresh tissues and converted in percentage of protection compared to control.

[2] = molecular target: benzodiazepine receptors; test: Inhibition of the binding to benzodiazepine receptors; details: rat brains, 1 hour 30 minutes at 4° C., tracers 3H-RO-15-1788 and 3H-RO-5-4864, Table I, read-out: BDZ receptors
Description: 2) Inhibition of the binding to benzodiazepine receptors
The interest of the previous experimentation depends on the results obtained in this experimentation: as a compound of the invention has a benzodiazepine like structure, it is important to check whether the specific benzodiazepine activity would not appear at the dose where platelet aggregation was inhibited.
Therefore, this experimentation has been conducted according to the method of MOHLER H. and RICHARD J. G. Agonist and antagonist benzodiazepine receptor interaction in vitro, Nature, vol. 294, 763-765, 1981.
This experimentation was conducted on rat brains incubated 1 hour 30 minutes at 4° C. using ^3 H-RO-15-1788 and ^3 H-RO-5-4864 (NEN) as tracers and […] and RO-5-4864 as reference antagonists.
The results in molecular concentration are reported in the table I, on the right hand column.

[3] = test system: platelet aggregation induced by PAF; test: Inhibition of platelet aggregation induced by PAF; assay type: cell-based; details: Oryctolagus cuniculus, male New Zealand rabbits, Table I
Procedure: 1) Inhibition of platelet aggregation induced by PAF
This experimentation was conducted according to the method of R. KINLOUGH. RATHBONE, J. P. CAZENAVE, M. PACKHAM and F. MUSTARD, Lab. Invest. 48, 98, 1980. In this test, New Zealand rabbits were used (male New Zealand rabbits of an average weight of 5 kg).
The determinations are made on a chrono-log Coultronics aggregometer, at […] coupled with a graphic recorder; the results of these determinations (in molecular concentration) are reported on the table I on the central column.

Question: With `Cc1nnc2n1-c1sc3c(c1C(c1ccccc1Cl)=NC2)CCN(C(=O)CSc1ccccc1C(F)(F)F)C3` [Example 19, 6-(2-chlorophenyl)-9-(2-trifluoromethylphenylthiomethylcarbonyl)-7,8,9, 10-tetrahydro-1-methyl-4H-pyrido [4',3':4,5] thieno [3,2-f] 1,2,4-triazolo[4,3-a] 1,4-diazepine] as the compound, how does the inhibition in vivo at 10 mg/kg [1] read?
Answer: 45.6%

Question: What about the IC50 [2] of the same compound?
Answer: 270 nM

Question: What about the IC50 [3] of the same compound?
Answer: 6.36 nM

Question: Which inhibition in vivo at 10 mg/kg [1] does the source give for `Cc1nnc2n1-c1sc3c(c1C(c1ccccc1Cl)=NC2)CCN(C(=S)CSc1ccccc1C(F)(F)F)C3` [Example 20, 6-(2-chlorophenyl)-9-(2-trifluoromethylphenylthiomethylthiocarbonyl)-7,8,9, 10-tetrahydro-1-methyl-4H-pyrido [4',3':4,5] thieno [3,2-f] 1,2,4-triazolo [4,3-a] 1,4-diazepine] here?
Answer: 32.7%

Question: And the IC50 [2]?
Answer: 1600 nM

Question: What about the IC50 [3] of the same compound?
Answer: 146 nM

Question: Which inhibition in vivo at 10 mg/kg [1] does the source give for `Cc1nnc2n1-c1sc3c(c1C(c1ccccc1Cl)=NC2)CCN(C(=O)CSc1cccc(C(F)(F)F)c1)C3` [Example 21, 6-(2-chlorophenyl)-9-(3-trifluoromethylphenylthiomethylcarbonyl)-7,8,9, 10-tetrahydro-1-methyl-4H-pyrido [4',3':4,5] thieno [3,2-f] 1,2,4-triazolo[4,3-a] 1,4-diazepine] here?
Answer: 34.1%

Question: And the IC50 [2]?
Answer: 810 nM

Question: What about the IC50 [3] of the same compound?
Answer: 8.66 nM

Question: For `Cc1nnc2n1-c1sc3c(c1C(c1ccccc1Cl)=NC2)CCN(C(=S)CSc1cccc(C(F)(F)F)c1)C3` [Example 22, 6-(2-chlorophenyl)-9-(3-trifluoromethylphenylthiomethylthiocarbonyl)-7,8,9, 10-tetrahydro-1-methyl-4H-pyrido [4',3':4,5] thieno [3,2-f] 1,2,4-triazolo [4,3-a] 1,4-diazepine], which inhibition in vivo at 10 mg/kg [1] is on record?
Answer: 48.1%

Question: And the IC50 [2]?
Answer: 610 nM

Question: What about the IC50 [3] of the same compound?
Answer: 8.18 nM

Question: For `Cc1nnc2n1-c1sc3c(c1C(c1ccccc1Cl)=NC2)CCN(C(=O)CSc1ccc(C(F)(F)F)cc1)C3` [Example 23, 6-(2-chlorophenyl)-9-(4-trifluoromethylphenylthiomethylcarbonyl)-7,8,9, 10-tetrahydro-1-methyl-4H-pyrido [4',3':4,5] thieno [3,2-f] 1,2,4-triazolo[4,3-a] 1,4-diazepine], which inhibition in vivo at 10 mg/kg [1] is on record?
Answer: 37.5%

Question: What about the IC50 [2] of the same compound?
Answer: 1200 nM

Question: And the IC50 [3]?
Answer: 12.4 nM

Question: Which results are given for `Cc1nnc2n1-c1sc3c(c1C(c1ccccc1Cl)=NC2)CCN(C(=S)CSc1ccc(C(F)(F)F)cc1)C3` [Example 24, 6-(2-chlorophenyl)-9-(4-trifluoromethylphenylthiomethylthiocarbonyl)-7,8,9, 10-tetrahydro-1-methyl-4H-pyrido [4',3':4,5] thieno [3,2-f] 1,2,4-triazolo [4,3-a] 1,4-diazepine]?
Answer: inhibition in vivo at 10 mg/kg [1]: 38.7%; IC50 [2]: 3300 nM; IC50 [3]: 32.7 nM

Question: With `Cc1nnc2n1-c1sc3c(c1C(c1ccccc1Cl)=NC2)CCN(C(=O)CSc1ccc(F)cc1)C3` [Example 25, 6-(2-chlorophenyl)-9-(4-fluorophenylthiomethyl-carbonyl)-7,8,9, 10-tetrahydro-1-methyl-4H-pyrido [4',3':4,5] thieno [3,2-f] 1,2,4-triazolo[4,3-a] 1,4-diazepine] as the compound, how does the inhibition in vivo at 10 mg/kg [1] read?
Answer: 14.7%

Question: And the IC50 [2]?
Answer: 630 nM

Question: And the IC50 [3]?
Answer: 11.3 nM

Question: Which inhibition in vivo at 10 mg/kg [1] does the source give for `Cc1nnc2n1-c1sc3c(c1C(c1ccccc1Cl)=NC2)CCN(C(=S)CSc1ccc(F)cc1)C3` [Example 26, 6-(2-chlorophenyl)-9-(4-fluorophenylthiomethyl-thiocarbonyl)-7,8,9, 10-tetrahydro-1-methyl-4H-pyrido [4',3':4,5] thieno [3,2-f] 1,2,4-triazolo[4,3-a] 1,4-diazepine] here?
Answer: 26.5%

Question: And the IC50 [2]?
Answer: 610 nM

Question: And the IC50 [3]?
Answer: 6.56 nM

Question: For `Cc1nnc2n1-c1sc3c(c1C(c1ccccc1Cl)=NC2)CCN(C(=O)CSc1cccc(Cl)c1Cl)C3` [Example 27, 6-(2-chlorophenyl)-9-(2,3-dichlorophenylthiomethyl-carbonyl)-7,8,9, 10-tetrahydro-1-methyl-4H-pyrido [4',3':4,5] thieno [3,2-f] 1,2,4-triazolo[4,3-a] 1,4-diazepine], which inhibition in vivo at 10 mg/kg [1] is on record?
Answer: 33.3%

Question: What about the IC50 [2] of the same compound?
Answer: 48000 nM

Question: What about the IC50 [3] of the same compound?
Answer: 8.45 nM

Question: Which inhibition in vivo at 10 mg/kg [1] does the source give for `Cc1nnc2n1-c1sc3c(c1C(c1ccccc1Cl)=NC2)CCN(C(=S)CSc1cccc(Cl)c1Cl)C3` [Example 28, 6-(2-chlorophenyl)-9-(2,3-dichlorophenylthiomethyl-thiocarbonyl)-7,8,9, 10-tetrahydro-1-methyl-4H-pyrido [4',3':4,5] thieno [3,2-f] 1,2,4-triazolo[4,3-a] 1,4-diazepine] here?
Answer: 35.3%

Question: What about the IC50 [2] of the same compound?
Answer: 4300 nM

Question: And the IC50 [3]?
Answer: 9.06 nM

Question: Which results are given for `Cc1nnc2n1-c1sc3c(c1C(c1ccccc1Cl)=NC2)CCN(C(=O)CSc1ccc(Oc2ccccc2)cc1)C3` [Example 29, 6-(2-chlorophenyl)-9-(4-phenoxyphenylthiomethyl-carbonyl) 7,8,9, 10-tetrahydro-1-methyl-4H-pyrido [4',3':4,5] thieno [3,2-f] 1,2,4-triazolo[4,3-a] 1,4-diazepine]?
Answer: inhibition in vivo at 10 mg/kg [1]: 51.6%; IC50 [2]: 1230 nM; IC50 [3]: 9.05 nM

Question: Which results are given for `Cc1nnc2n1-c1sc3c(c1C(c1ccccc1Cl)=NC2)CCN(C(=S)CSc1ccc(Oc2ccccc2)cc1)C3` [Example 30, 6-(2-chlorophenyl)-9-(4-phenoxyphenylthiomethyl-thiocarbonyl)-7,8,9, 10-tetrahydro-1-methyl-4H-pyrido [4',3':4,5] thieno [3,2-f] 1,2,4-triazolo[4,3-a] 1,4-diazepine]?
Answer: inhibition in vivo at 10 mg/kg [1]: 16.1%; IC50 [2]: 360 nM; IC50 [3]: 104 nM

Question: For `Cc1nnc2n1-c1sc3c(c1C(c1ccccc1Cl)=NC2)CCN(C(=O)CSc1ccco1)C3` [Example 31, 6-(2-chlorophenyl)-9-(2-furyl-thiomethyl-carbonyl)-7,8,9, 10-tetrahydro-1-methyl-4H-pyrido [4',3':4,5] thieno [3,2-f] 1,2,4-triazolo[4,3-a] 1,4-diazepine], which inhibition in vivo at 10 mg/kg [1] is on record?
Answer: 36.2%

Question: And the IC50 [2]?
Answer: 230 nM

Question: What about the IC50 [3] of the same compound?
Answer: 7.1 nM

Question: Which inhibition in vivo at 10 mg/kg [1] does the source give for `Cc1nnc2n1-c1sc3c(c1C(c1ccccc1Cl)=NC2)CCN(C(=S)CSc1ccco1)C3` [Example 32, 6-(2-chlorophenyl)-9-(2-furyl-thiomethyl-thiocarbonyl)-7,8,9, 10-tetrahydro-1-methyl-4H-pyrido [4',3':4,5] thieno [3,2-f] 1,2,4-triazolo[4,3-a] 1,4-diazepine] here?
Answer: 30.3%

Question: And the IC50 [2]?
Answer: 1300 nM

Question: And the IC50 [3]?
Answer: 8.75 nM

Question: With `Cc1nnc2n1-c1sc3c(c1C(c1ccccc1Cl)=NC2)CCN(C(=O)CSc1cccs1)C3` [Example 33, 6-(2-chlorophenyl)-9-(2-thienyl-thiomethyl-carbonyl)-7,8,9, 10-tetrahydro-1-methyl-4H-pyrido [4',3':4,5] thieno [3,2-f] 1,2,4-triazolo[4,3-a] 1,4-diazepine] as the compound, how does the inhibition in vivo at 10 mg/kg [1] read?
Answer: 24.8%

Question: What about the IC50 [2] of the same compound?
Answer: 5700 nM

Question: What about the IC50 [3] of the same compound?
Answer: 41.2 nM

Question: With `Cc1nnc2n1-c1sc3c(c1C(c1ccccc1Cl)=NC2)CCN(C(=S)CSc1cccs1)C3` [Example 34, 6-(2-chlorophenyl)-9-(2-thienyl-thiomethyl-thiocarbonyl)-7,8,9, 10-tetrahydro-1-methyl-4H-pyrido [4',3':4,5] thieno [3,2-f] 1,2,4-triazolo[4,3-a] 1,4-diazepine] as the compound, how does the inhibition in vivo at 10 mg/kg [1] read?
Answer: 34.7%

Question: And the IC50 [2]?
Answer: 720 nM

Question: And the IC50 [3]?
Answer: 128 nM
